This note sets out measurements from patent US20210238170A1, “5,5-Difluoro- and 5-Fluoro-5-Methyl-C-Glycoside Derivatives Useful As Dual SGLT1 / SGLT2 Modulators” (Janssen Pharmaceutica NV, priority 2018, published 2021).

One assay addresses T1, human SGLT1 (Homo sapiens, UniProt P13866).
T1 construct: expressed in transfected cells
T1 sequence (P13866 1-664): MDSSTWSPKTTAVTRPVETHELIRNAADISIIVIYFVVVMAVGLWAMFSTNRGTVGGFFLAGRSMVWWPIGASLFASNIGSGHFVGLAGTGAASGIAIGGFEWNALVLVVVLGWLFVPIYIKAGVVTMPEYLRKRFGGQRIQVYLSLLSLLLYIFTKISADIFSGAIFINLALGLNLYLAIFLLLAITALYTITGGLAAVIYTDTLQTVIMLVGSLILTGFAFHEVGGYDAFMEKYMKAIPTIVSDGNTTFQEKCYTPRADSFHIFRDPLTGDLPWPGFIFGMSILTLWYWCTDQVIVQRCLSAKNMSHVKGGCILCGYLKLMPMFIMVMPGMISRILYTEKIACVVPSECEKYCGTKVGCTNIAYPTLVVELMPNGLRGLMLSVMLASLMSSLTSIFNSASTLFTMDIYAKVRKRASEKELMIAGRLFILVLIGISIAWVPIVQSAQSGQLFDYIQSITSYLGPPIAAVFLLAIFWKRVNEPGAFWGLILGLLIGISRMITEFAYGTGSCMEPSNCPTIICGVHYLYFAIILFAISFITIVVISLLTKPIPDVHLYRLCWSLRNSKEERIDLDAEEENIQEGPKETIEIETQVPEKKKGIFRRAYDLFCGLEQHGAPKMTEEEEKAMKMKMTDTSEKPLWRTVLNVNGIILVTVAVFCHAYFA
Put plainly: SGLT1 in vitro assay: Na-dependent 14C-AMG uptake in CHO-K1 cells stably expressing human SGLT1. The class given is cell-based. The settings on record: CHO-K1 cells stably expressing human SGLT1, 14C-AMG uptake; for inhibition at 0.3 µM: read-out: SGLT1 % Inh @ 0.3 μM; for IC50: compounds of formula (I) where R0 is fluoro. The procedure, abridged:
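CHO-K1 cells stably expressing human SGLT1 or SGLT2, induced with 10 mM Na-butyrate for 24 h. Compounds (0.001–10 μM) in Na+-containing HEPES/Tris buffer pH 7.4 were applied for 10 min, then 14C-AMG ([…]) for 2 h at 37°C; Na-dependent uptake read by scintillation; %-inhibition or IC50.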

A further assay relates to db/db mice. Put plainly: SGLT inhibition evaluated in db/db mice: fed blood glucose AUC and 24-hr urine glucose excretion. The class given is in vivo, mouse. The settings on record: oral dose 10 mg/kg, mean ± SE, n = 8; for 24-hr Blood Glucose AUC vs Vehicle (%): fed. On the procedure:
Biological Example 3: In Vivo Assay
SGLT Inhibition Evaluated in db/db Mice
Based on fed blood glucose levels, db/db mice were allocated into either vehicle or test compound treated groups (n=8 in each group). After grouped, the mice were orally dosed with either vehicle or test compound at 0 and 10 mg/kg, in a volume of 10 ml/kg. The mice were then immediately transferred into mouse metabolic cages, after they were dosed. Fed blood glucose levels were determined at multiple timepoints after the animals were treated. Fed blood glucose AUC (area under the curve of blood glucose) was determined from the blood glucose levels measured at the timepoints.
Table 10 below, presents the measured efficacy of the test compound(s), expressed as a percentage (%) of blood glucose AUC vs that in vehicle group. The data is interpreted such that, the smaller the percentage of blood glucose AUC of compound vs vehicle, the greater efficacy of the test compound. Total urine glucose excretion (UGE) over the 24-hr period post treatment was calculated based on urine glucose concentrations and urine volumes at multiple timepoints. Urine glucose was measured using Olympus system with Genzyme diagnostics assay reagent.

On to `COc1cc(O)c([C@@H]2O[C@H](CO)C(F)(F)[C@H](O)[C@H]2O)cc1Cc1ccc2c(c1)CCCO2` [Compound 44, (2S,3R,4R,6R)-2-(5-(chroman-6-ylmethyl)-2-hydroxy-4-methoxyphenyl)-5,5-difluoro-6-(hydroxymethyl)tetrahydro-2H-pyran-3,4-diol], for which, at human SGLT1, the inhibition at 0.3 µM was 56.2% and half-maximal inhibition (IC50) was put at 96 nM. For the same molecule, in the assay with db/db mice, the “24-hr Blood Glucose AUC vs Vehicle (%)” value was 48.4 ± 3.4% and the “Urine Glucose Excretion (g/24 hr)” value amounted to 0.55 ± 0.12 g/24 hr.
`COc1ccc(Cc2cc([C@@H]3O[C@H](CO)C(F)(F)[C@H](O)[C@H]3O)c(O)cc2Cl)cc1` [Compound 81, (2S,3R,4R,6R)-2-(4-chloro-2-hydroxy-5-(4-methoxybenzyl)phenyl)-5,5-difluoro-6-(hydroxymethyl)-tetrahydro-2H-pyran-3,4-diol]: on human SGLT1, the inhibition at 0.3 µM amounted to 76.6% and half-maximal inhibition (IC50) was put at 34 nM. Moreover, the “24-hr Blood Glucose AUC vs Vehicle (%)” value with db/db mice was 55.0 ± 4.6%.
